Assay: Human HepG2 cell viability assay in 384 well format
Assay type: toxicity, cell-based
Parameters: dose 125 nL, time 70.5 hour; cytotoxicity at 70.5 h: concentration not given beside the values
Details: HepG2 cells, read-out: Inhibition
In the case of `Cc1nc(C(C)(C)C)sc1C(=O)NCCn1cccn1`, the cytotoxicity at 70.5 h is reported as -0.966%.
With `Cn1ncc2c1NC(=O)CC2c1ccccc1Br` (stereo unspecified) the cytotoxicity at 70.5 h was -12.4%.
`CS(=O)(=O)NC1CC(=O)N(c2ccccc2Cl)C1` (stereo unspecified) showed a cytotoxicity at 70.5 h of -27%.
With `Cc1ccc(NC(=O)C2CSCN2C(=O)c2cnccn2)cc1C` (stereo unspecified) the cytotoxicity at 70.5 h was -9.37%.
With `CCOCCN1CCO[C@H]2[C@H](OCc3ccccn3)CC[C@@H]21` the cytotoxicity at 70.5 h was -11%.
For `CC(C)c1noc(CCC(=O)NCC2CC2)n1`, the cytotoxicity at 70.5 h was 23.5%.
`NC(=O)CN1CCC(NC(=O)c2ccn(-c3cccc(F)c3)n2)CC1` gave a cytotoxicity at 70.5 h of -3.27%.
Work on `Cc1csc(CCNC(=O)c2ccc(N(C)C)c(F)c2)n1` yielded a cytotoxicity at 70.5 h of 13.6%.
With `CC(C)(C)n1ncc2c1NC(=O)CC2c1ccsc1` (stereo unspecified) the cytotoxicity at 70.5 h was -5.9%.
Compound `Cc1nn(CC(=O)N2CCN(c3ccc(F)cc3)CC2)c(C)c1Cl` has a cytotoxicity at 70.5 h of 26.3%.
Compound `O=c1cccnn1CC1CN(c2ncc(F)cn2)Cc2nccn2C1` (stereo unspecified) has a cytotoxicity at 70.5 h of -10.5%.
In the case of `Cc1nc(N)nc(C)c1CC(=O)NCc1ccc2nonc2c1`, the cytotoxicity at 70.5 h is reported as -9.8%.
For `O=C(O)C(c1ccc(O)cc1)N1CCC(N2CCSCC2)CC1` (stereo unspecified), the cytotoxicity at 70.5 h was -0.773%.
`COc1ccccc1CN(CC1CCCO1)C(=O)c1scnc1C` (stereo unspecified) showed a cytotoxicity at 70.5 h of -12.6%.
`CN(Cc1ccc2c(c1)OCCO2)Cn1nc(C(C)(C)C)ccc1=O` gave a cytotoxicity at 70.5 h of 12.7%.
In the case of `CCN(CC)C(=O)CNC(=O)c1ccc(-c2ccsc2)nc1C`, the cytotoxicity at 70.5 h is reported as 59.9%.
For `CC(C)(C)c1nc(C(C)(C)NC(=O)C2CC(=O)N(CC3CC3)C2)no1` (stereo unspecified), the cytotoxicity at 70.5 h was -1.01%.
In the case of `CCCC(=O)N1CCCN(C(=O)Nc2ccc(C)s2)CC1`, the cytotoxicity at 70.5 h is reported as -4.08%.
Compound `COc1ccccc1Oc1ncccc1CNC(=O)C(O)C(F)(F)F` (stereo unspecified) has a cytotoxicity at 70.5 h of -5.77%.
For `Cc1cnn(CC2CCCN2CCCc2nc3ccccc3o2)c1` (stereo unspecified), the cytotoxicity at 70.5 h was -16.1%.
Work on `O=C(NCC1CCC1)c1ccc(-n2ccnc2)nn1` yielded a cytotoxicity at 70.5 h of 5.15%.
`CC(CNC(=O)CCc1ccccn1)c1ccsc1` (stereo unspecified) gave a cytotoxicity at 70.5 h of -16.6%.
With `CCOCC1CN(c2ncccn2)Cc2cnn(CC3CCOCC3)c21` (stereo unspecified) the cytotoxicity at 70.5 h was 9.85%.
Work on `Cc1cc(CN(C)C(=O)C2CCS(=O)(=O)C2)no1` (stereo unspecified) yielded a cytotoxicity at 70.5 h of 2.42%.
With `COc1cccc(CC(C)NC(=O)NCCc2cccnc2)c1` (stereo unspecified) the cytotoxicity at 70.5 h was -8.55%.
`CC(C)CN1CCCC1c1ccc(C(=O)Nc2cccnc2)s1` (stereo unspecified) gave a cytotoxicity at 70.5 h of 0.0684%.
In the case of `Cc1ccccc1CN1C[C@@H](C(=O)N2CCCCO2)C[C@H]2OCC[C@H]21`, the cytotoxicity at 70.5 h is reported as -7.46%.
`O=C(NCc1ccc(F)cc1)C1CCCN(c2ccc3nncn3n2)C1` (stereo unspecified) gave a cytotoxicity at 70.5 h of 22%.
With `CC(=O)N1CCS(=O)(=O)[C@@H]2CCN(CC(C)C)CC[C@@H]21` the cytotoxicity at 70.5 h was -6.52%.
With `CCC(NC(=O)NCc1cccc(N(C)C)n1)c1ccccc1OC` (stereo unspecified) the cytotoxicity at 70.5 h was -7.5%.
With `c1cc(CC2CCCNC2)nc(NCCc2cnccn2)c1` (stereo unspecified) the cytotoxicity at 70.5 h was -11.1%.
Compound `CCC(C)[C@H](NC(=O)c1cc(Br)ccc1-n1cnnn1)C(=O)OC` (stereo partly specified) has a cytotoxicity at 70.5 h of 42%.
In the case of `CC(C)Cn1cc(NC(=O)NC(C)(C)c2nccs2)cn1`, the cytotoxicity at 70.5 h is reported as -6.56%.
`CCCc1n[nH]c(C2CN(CCNS(C)(=O)=O)CCO2)n1` (stereo unspecified) showed a cytotoxicity at 70.5 h of 25.5%.
`CSCCC(=O)N1CCCC(c2nccn2Cc2ccncc2)C1` (stereo unspecified) gave a cytotoxicity at 70.5 h of -5.49%.
Compound `CCS(=O)(=O)N1CCC2(COCc3cnc(N4CCOCC4)nc32)C1` (stereo unspecified) has a cytotoxicity at 70.5 h of -6.84%.
Compound `Cc1nc(CN2CC[C@H]3C[C@H](c4ccncn4)O[C@@H]3C2)cs1` has a cytotoxicity at 70.5 h of -3.68%.
In the case of `Cc1nc(C(=O)N2CCN(S(C)(=O)=O)[C@@H]3CS(=O)(=O)C[C@@H]32)cs1`, the cytotoxicity at 70.5 h is reported as 1.07%.
Compound `CN(C)CC1CN(c2ncnc3[nH]ccc23)CCO1` (stereo unspecified) has a cytotoxicity at 70.5 h of 5.61%.
For `CNC(=O)c1ccc(CNC(=O)c2ccc(Cl)cc2F)cc1`, the cytotoxicity at 70.5 h was -11.8%.
With `CC(=O)N1CCN(Cc2csc(-c3cnn(C)c3)n2)CC1` the cytotoxicity at 70.5 h was 2.34%.
`CC(=O)N1CCCN(C(=O)NCc2cc[nH]n2)CC1` gave a cytotoxicity at 70.5 h of 44.8%.
`CCN(CC)S(=O)(=O)c1ccc(CNC(=O)c2cc(C)on2)cc1` gave a cytotoxicity at 70.5 h of -2.55%.
In the case of `CCc1nc(C2CCCN2C(=O)c2ccc(N3CCCC3)nn2)no1` (stereo unspecified), the cytotoxicity at 70.5 h is reported as -3.36%.
With `Cc1n[nH]c(C)c1CC(=O)N1CCC2(CC1)CN(C)CCN2C` the cytotoxicity at 70.5 h was 23.4%.
For `Cc1nn(C)c2c(N3CCN(C(=O)NC4CCCCC4)CC3)ncnc12`, the cytotoxicity at 70.5 h was 4.87%.
`COCCNC(=O)[C@@H]1CN(c2ncccn2)C[C@H]2OCC[C@H]21` showed a cytotoxicity at 70.5 h of -2.54%.
With `CN1C[C@H](c2ccccc2)[C@H]2CN(C(=O)Cc3cccc(O)c3)CC[C@H]21` the cytotoxicity at 70.5 h was -2.25%.
Work on `COc1ccccc1N1CCN(C(=O)Cn2nc(C)c(C)c2C)C(C)C1` (stereo unspecified) yielded a cytotoxicity at 70.5 h of -3.01%.
`Cc1ncc2c(n1)CN(CCOc1ccc3c(c1)CCC(=O)N3)CC2` showed a cytotoxicity at 70.5 h of -6.43%.
With `COC(=O)c1ccc(Cl)c(NS(=O)(=O)c2cnn(C)c2)c1` the cytotoxicity at 70.5 h was 10.2%.
For `Cc1ccsc1CN(CCN(C)C)C(=O)c1ccccc1C#N`, the cytotoxicity at 70.5 h was -0.2%.
For `Cn1cc(C(=O)CC2CCCN2C(=O)c2cncc3ccccc23)cn1` (stereo unspecified), the cytotoxicity at 70.5 h was 3.04%.
Work on `C[C@@H](NC(=O)c1ccc(Cl)cc1)c1onc(-c2cccnc2)c1C(=O)O` yielded a cytotoxicity at 70.5 h of -6%.
`CS(=O)(=O)N1CCC(c2ccncn2)CC1` showed a cytotoxicity at 70.5 h of -10.9%.
Compound `COCCN1C(=O)CCC12CCN(c1ncc(F)cn1)CC2` has a cytotoxicity at 70.5 h of -2.74%.
